Assay results: PubChem BioAssay AID1259407 (Chemical Carcinogenesis Research Information System (CCRIS), 2018)
Active and inactive are the calls of the source. The rule behind the calls is not given here.

Tested on: CCRIS mutagenicity, Ames/micronucleus/aberration tests
Test: CCRIS mutagenicity studies

CN(C)N=O
mutagenic call (Test System: AMES SALMONELLA TYPHIMURIUM, Strain/Indicator: TA1535ER, Metabolic Activation: NONE, Method: STANDARD PLATE): inactive; negative | mutagenic call (Test System: AMES SALMONELLA TYPHIMURIUM, Strain/Indicator: TA1975, Metabolic Activation: RAT, LIVER, S-9, AROCLOR 1254, Method: PREINCUBATION): active; positive | mutagenic call (Test System: AMES SALMONELLA TYPHIMURIUM, Strain/Indicator: TA2410, Metabolic Activation: NONE, Method: HOST-MEDIATED): active; positive | mutagenic call (Test System: AMES SALMONELLA TYPHIMURIUM, Strain/Indicator: TA2638, Metabolic Activation: NONE, Method: PREINCUBATION): active; positive | mutagenic call (Test System: AMES SALMONELLA TYPHIMURIUM, Strain/Indicator: TA2659, Metabolic Activation: NONE, Method: PREINCUBATION): inactive; negative | mutagenic call (Test System: AMES SALMONELLA TYPHIMURIUM, Strain/Indicator: TA2678, Metabolic Activation: NONE, Method: HOST-MEDIATED): active; positive | mutagenic call (Test System: AMES SALMONELLA TYPHIMURIUM, Strain/Indicator: YG7100, Metabolic Activation: S-9, Method: PREINCUBATION): active; positive | mutagenic call (Test System: AMES SALMONELLA TYPHIMURIUM, Strain/Indicator: YG7104, Metabolic Activation: RAT LIVER S-9, ETHANOL (4%), Method: PREINCUBATION): active; positive | mutagenic call (Test System: AMES SALMONELLA TYPHIMURIUM, Strain/Indicator: YG7104, Metabolic Activation: S-9, Method: PREINCUBATION): active; positive | mutagenic call (Test System: AMES SALMONELLA TYPHIMURIUM, Strain/Indicator: YG7104ER, Metabolic Activation: NONE, Method: STANDARD PLATE): active; positive | mutagenic call (Test System: AMES SALMONELLA TYPHIMURIUM, Strain/Indicator: YG7108, Metabolic Activation: RAT LIVER S-9, ETHANOL (4%), Method: PREINCUBATION): active; positive | mutagenic call (Test System: AMES SALMONELLA TYPHIMURIUM, Strain/Indicator: YG7108, Metabolic Activation: S-9, Method: PREINCUBATION): active; positive | mutagenic call (Test System: AMES SALMONELLA TYPHIMURIUM, Strain/Indicator: YG7108E, Metabolic Activation: NONE, Method: STANDARD PLATE): inactive; negative | mutagenic call (Test System: AMES SALMONELLA TYPHIMURIUM, Strain/Indicator: YG7108ER, Metabolic Activation: NONE, Method: STANDARD PLATE): active; positive | mutagenic call (Test System: AMES SALMONELLA TYPHIMURIUM, Strain/Indicator: YG7108R, Metabolic Activation: NONE, Method: STANDARD PLATE): inactive; negative | mutagenic call (Test System: AMES SALMONELLA TYPHIMURIUM, Strain/Indicator: YG7112, Metabolic Activation: S-9, Method: PREINCUBATION): active; positive | mutagenic call (Test System: AMES SALMONELLA TYPHIMURIUM, Strain/Indicator: YG7113, Metabolic Activation: S-9, Method: PREINCUBATION): active; positive | mutagenic call (Test System: AMES SALMONELLA TYPHIMURIUM, Strain/Indicator: YG7119, Metabolic Activation: S-9, Method: PREINCUBATION): inactive; negative | mutagenic call (Test System: CHINESE HAMSTER V-79, Strain/Indicator: V-79 (HPRT)/6-THIOGUANINE, Metabolic Activation: RAT, HEPATOCYTES): active; positive | mutagenic call (Test System: CHINESE HAMSTER V-79, Strain/Indicator: V-79 (HPRT)/6-THIOGUANINE, Metabolic Activation: RAT, HEPATOMA, H4IIE CELLS): active; positive | mutagenic call (Test System: CHINESE HAMSTER V-79, Strain/Indicator: V-79 (HPRT)/6-THIOGUANINE, Metabolic Activation: RAT, LIVER, S-9, AROCLOR 1254): active; positive | mutagenic call (Test System: CHINESE HAMSTER V-79, Strain/Indicator: V-79/6-THIOGUANINE, Metabolic Activation: NONE, Method: STANDARD PLATE): inactive; negative | mutagenic call (Test System: CHINESE HAMSTER V-79, Strain/Indicator: V-79/6-THIOGUANINE, Metabolic Activation: RAT, HEPATOCYTES, BUTYLATED HYDROXYANISOLE, Method: STANDARD PLATE): active; positive | mutagenic call (Test System: CHINESE HAMSTER V-79, Strain/Indicator: V-79/6-THIOGUANINE, Metabolic Activation: RAT, HEPATOCYTES, Method: STANDARD PLATE): active; positive | mutagenic call (Test System: CHINESE HAMSTER V-79, Strain/Indicator: V-79/6-THIOGUANINE, Metabolic Activation: RAT, LIVER, S-15, PHENOBARBITAL, Method: STANDARD PLATE): active; positive | mutagenic call (Test System: CHINESE HAMSTER V-79, Strain/Indicator: V-79/8-AZAGUANINE, Metabolic Activation: RAT, LIVER, S-15, PHENOBARBITAL, Method: STANDARD PLATE): active; positive | mutagenic call (Test System: CHINESE HAMSTER V-79, Strain/Indicator: V-79/OUABAIN, Metabolic Activation: CELL-MEDIATED, Method: STANDARD PLATE): active; positive | mutagenic call (Test System: CHINESE HAMSTER V-79, Strain/Indicator: V-79/OUABAIN, Metabolic Activation: FREE MICROSOMES M, LIVER, Method: STANDARD PLATE): active; positive | mutagenic call (Test System: CHINESE HAMSTER V-79, Strain/Indicator: V-79/OUABAIN, Metabolic Activation: HAMSTER, HEPATOCYTES, Method: CELL-MEDIATED): active; positive | mutagenic call (Test System: CHINESE HAMSTER V-79, Strain/Indicator: V-79/OUABAIN, Metabolic Activation: NONE, Method: STANDARD PLATE): inactive; negative | mutagenic call (Test System: CHINESE HAMSTER V-79, Strain/Indicator: V-79/OUABAIN, Metabolic Activation: RAT, HEPATOCYTES, BUTYLATED HYDROXYANISOLE, Method: STANDARD PLATE): active; positive | mutagenic call (Test System: CHINESE HAMSTER V-79, Strain/Indicator: V-79/OUABAIN, Metabolic Activation: RAT, HEPATOCYTES, Method: STANDARD PLATE): active; positive | mutagenic call (Test System: CHO/HGPRT, Strain/Indicator: CHO-K1-BH4, Metabolic Activation: MOUSE, IN VIVO, Method: HOST-MEDIATED): active; positive | mutagenic call (Test System: E. COLI, Strain/Indicator: WP2 (HCR), Metabolic Activation: RAT, LIVER, MICROSOMES, KANECHLOR 500, Method: PREINCUBATION): inactive; negative | mutagenic call (Test System: E. COLI, Strain/Indicator: WP2, Metabolic Activation: NONE, Method: STANDARD PLATE): active; positive | mutagenic call (Test System: E. COLI, Strain/Indicator: WP2, Metabolic Activation: RAT, LIVER, S-9, AROCLOR 1254, Method: STANDARD PLATE): active; positive | mutagenic call (Test System: E. COLI, Strain/Indicator: WP2 UVRA, Metabolic Activation: HAMSTER, LIVER, S-9, AROCLOR 1254, Method: PREINCUBATION): inactive; negative | mutagenic call (Test System: E. COLI, Strain/Indicator: WP2 UVRA, Metabolic Activation: HAMSTER, LIVER, S-9, Method: PREINCUBATION): inactive; negative | mutagenic call (Test System: E. COLI, Strain/Indicator: WP2 UVRA, Metabolic Activation: MOUSE, LIVER, S-9, AROCLOR 1254, Method: PREINCUBATION): inactive; negative | mutagenic call (Test System: E. COLI, Strain/Indicator: WP2 UVRA, Metabolic Activation: MOUSE, LIVER, S-9, Method: PREINCUBATION): inactive; negative | mutagenic call (Test System: E. COLI, Strain/Indicator: WP2 UVRA, Metabolic Activation: NONE, Method: PREINCUBATION): inactive; negative | mutagenic call (Test System: E. COLI, Strain/Indicator: WP2 UVRA, Metabolic Activation: NONE, Method: STANDARD PLATE): active; positive | mutagenic call (Test System: E. COLI, Strain/Indicator: WP2 UVRA, Metabolic Activation: RAT, LIVER, S-9, AROCLOR 1254, Method: PREINCUBATION): inactive; negative | mutagenic call (Test System: E. COLI, Strain/Indicator: WP2 UVRA, Metabolic Activation: RAT, LIVER, S-9, AROCLOR 1254, Method: STANDARD PLATE): active; positive | mutagenic call (Test System: E. COLI, Strain/Indicator: WP2 UVRA, Metabolic Activation: RAT, LIVER, S-9, Method: PREINCUBATION): inactive; negative | mutagenic call (Test System: MOUSE LYMPHOMA, Strain/Indicator: L5178Y (TK+/TK-), Metabolic Activation: RAT, LIVER, S-9, AROCLOR 1254, Method: SUSPENSION/PLATE): active; positive | mutagenic call (Test System: MOUSE LYMPHOMA, Strain/Indicator: L5178Y (TK+/TK-), Metabolic Activation: RAT, LIVER, S-9, Method: SUSPENSION/PLATE): active; positive | mutagenic call (Test System: UDS HUMAN CELLS, Strain/Indicator: THY INCORP (NON-S-PHASE), Metabolic Activation: NONE, Method: AUTORADIOGRAPHY): active; positive | mutagenic call (Test System: UDS HUMAN CELLS, Strain/Indicator: THY INCORP (NON-S-PHASE), Metabolic Activation: RAT, LIVER, S-9, Method: AUTORADIOGRAPHY): active; positive | mutagenic call (Test System: UDS HUMAN FIBROBLASTS, Strain/Indicator: THY INCORP (NON-S-PHASE), Metabolic Activation: NONE, Method: AUTORADIOGRAPHY): active; positive | mutagenic call (Test System: UDS HUMAN FIBROBLASTS, Strain/Indicator: THY INCORP (NON-S-PHASE), Metabolic Activation: RAT, LIVER, S-9, Method: LIQUID SCINTILLATION COUNTING): active; positive | mutagenic call (Test System: UDS MONKEY HEPATOCYTES, Strain/Indicator: THY INCORP, Metabolic Activation: AROCLOR 1254, Method: AUTORADIOGRAPHY): active; positive | mutagenic call (Test System: UDS MONKEY HEPATOCYTES, Strain/Indicator: THY INCORP, Metabolic Activation: NONE, Method: AUTORADIOGRAPHY): active; positive | mutagenic call (Test System: UDS MOUSE HEPATOCYTES, Metabolic Activation: NONE, Method: IN VIVO-IN VITRO): active; positive | mutagenic call (Test System: UDS RAT HEPATOCYTES, Strain/Indicator: BROMODEOXYURIDINE INCORP, Metabolic Activation: NONE, Method: FLOW CYTOMETRIC ANALYSIS): active; positive | mutagenic call (Test System: UDS RAT HEPATOCYTES, Strain/Indicator: THY INCORP, Metabolic Activation: NONE, Method: AUTORADIOGRAPHY): active; positive | mutagenic call (Test System: UDS RAT HEPATOCYTES, Strain/Indicator: THY INCORP, Metabolic Activation: NONE, Method: LIQUID SCINTILLATION COUNTING): active; positive | mutagenic call (Test System: UDS RODENT HEPATOCYTES, Strain/Indicator: THY INCORP (NON-S-PHASE), Method: AUTORADIOGRAPHY): active; positive | mutagenic call (Test System: UDS RODENT HEPATOCYTES, Strain/Indicator: THY INCORP (NON-S-PHASE), Method: LIQUID SCINTILLATION COUNTING): active; positive | mutagenic call (Test System: UDS, Strain/Indicator: HEPG2/THYMIDINE INCORPORATION, Metabolic Activation: NONE, Method: AUTORADIOGRAPHY): active; positive
